Reference: patent US9469615B2, “Quinoxalines and AZA-quinoxalines as CRTH2 receptor modulators” (Merck Sharp & Dohme Corp., priority 2010, dated 2016)

Biological target: T1, hCRTH2 (Homo sapiens, UniProt Q9Y5Y4)
T1 construct: expressed in transfected cells; host or cells: HEK (human embryonic kidney) cells expressing hCRTH2; membrane preparation
T1 sequence (Q9Y5Y4 1-395): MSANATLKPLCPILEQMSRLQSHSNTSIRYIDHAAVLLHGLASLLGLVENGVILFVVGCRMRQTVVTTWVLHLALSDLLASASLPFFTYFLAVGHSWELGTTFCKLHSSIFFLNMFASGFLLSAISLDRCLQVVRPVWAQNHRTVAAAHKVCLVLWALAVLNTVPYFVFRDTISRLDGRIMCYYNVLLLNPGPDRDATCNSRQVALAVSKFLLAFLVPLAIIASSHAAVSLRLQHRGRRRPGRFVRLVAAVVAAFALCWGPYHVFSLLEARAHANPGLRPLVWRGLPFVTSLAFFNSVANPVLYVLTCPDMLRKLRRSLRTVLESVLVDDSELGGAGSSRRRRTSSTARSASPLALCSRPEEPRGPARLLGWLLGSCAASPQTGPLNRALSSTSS
Experiment: Radioligand binding assay ([3H]PGD2 competition, HEK-hCRTH2 membranes)
Method in brief: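 Competition binding with 3.0 nM [3H]PGD2 and 8-20 μg HEK-hCRTH2 membrane protein in 50 mM Tris-HCl pH 7.4, 1 mM EDTA, 2 mM MnCl2, 1% Me2SO, 60 min at room temperature. Nonspecific binding defined with 10 μM PGD2; bound radioactivity counted after filtration.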

| Structure (SMILES) | Ki ([3H]PGD2 competition, Table B) [nM] | Ki ([3H]PGD2 binding, values in text) [nM] |
| --- | --- | --- |
| O=C(O)CCCCc1nc2cc(C(=O)N[C@@H]3CCOc4ccccc43)ccc2nc1-c1ccccc1 [compound 512, (R)-5-(7-(chroman-4-ylcarbamoyl)-3-phenylquinoxalin-2-yl)pentanoic acid] | 0.1 to 2 | – |
| O=C(O)CCCCc1nc2cc(C(=O)N[C@H]3CCOc4ccccc43)ccc2nc1-c1ccccc1 [compound 513, (S)-5-(7-(chroman-4-ylcarbamoyl)-3-phenylquinoxalin-2-yl)pentanoic acid] | 0.1 to 2 | – |
| C[C@H]1CN(c2ccccc2)CCN1C(=O)c1ccc2nc(-c3ccc(F)cc3)c(CCCCC(=O)O)nc2c1 [compound 515, (S)-5-(3-(4-fluorophenyl)-7-(2-methyl-4-phenylpiperazine-1-carbonyl)quinoxalin-2-yl)pentanoic acid] | 2.1 to 20 | – |
| C[C@@H](CCCc1nc2cc(C(=O)N[C@@H]3CCCc4cc(F)ccc43)ccc2nc1-c1ccc(F)cc1)C(=O)O [compound 518, (S)-5-(7-(((R)-6-fluoro-1,2,3,4-tetrahydronaphthalen-1-yl)carbamoyl)-3-(4-fluorophenyl)quinoxalin-2-yl)-2-methylpentanoic acid] | 2.1 to 20 | – |
| C[C@@H](CCCc1nc2cc(C(=O)N[C@@H]3CCCc4cc(Cl)ccc43)ccc2nc1-c1ccc(F)cc1)C(=O)O [compound 519, (S)-5-(7-(((R)-6-chloro-1,2,3,4-tetrahydronaphthalen-1-yl)carbamoyl)-3-(4-fluorophenyl)quinoxalin-2-yl)-2-methylpentanoic acid] | 2.1 to 20 | – |
| C[C@@H](CCCc1nc2cc(C(=O)N3CCN(c4ccccc4)CC3)ccc2nc1-c1ccc(F)cc1)C(=O)O [compound 524, (S)-5-(3-(4-fluorophenyl)-7-(4-phenylpiperazine-1-carbonyl)quinoxalin-2-yl)-2-methylpentanoic acid] | 2.1 to 20 | – |
| C[C@@H](NC(=O)c1ccc2nc(-c3ccc(F)cc3)c(CCCC(F)(F)C(=O)O)nc2c1)c1ccc(Cl)cc1 [compound 527, (R)-5-(7-((1-(4-chlorophenyl)ethyl)carbamoyl)-3-(4-fluorophenyl)quinoxalin-2-yl)-2,2-difluoropentanoic acid] | 2.1 to 20 | – |
| O=C(c1ccc2nc(-c3ccc(F)cc3)c(CCCC(F)(F)C(=O)O)nc2c1)N1CCN(c2ccccc2)CC1 [compound 530] | 20.1 to 200 | – |
| O=C(O)CCCCc1nc2cc(C(=O)N[C@@H]3CCOc4cc(F)c(F)cc43)ccc2nc1-c1ccc(Cl)cc1 [compound 533, (R)-5-(3-(4-chlorophenyl)-7-((6,7-difluorochroman-4-yl)carbamoyl)quinoxalin-2-yl)pentanoic acid] | 2.1 to 20 | – |
| O=C(O)CCCCc1nc2cc(C(=O)N[C@H]3CCOc4ccc(F)cc43)ccc2nc1-c1ccc(Cl)cc1 [compound 534, (S)-5-(3-(4-chlorophenyl)-7-((6-fluorochroman-4-yl)carbamoyl)quinoxalin-2-yl)pentanoic acid] | 2.1 to 20 | – |
| C[C@H](NC(=O)c1ccc2nc(-c3ccc(F)cc3)c(CCCCC(=O)O)nc2c1)c1cccc2ccccc12 [compound 536, (S)-5-(3-(4-fluorophenyl)-7-((1-(naphthalen-1-yl)ethyl)carbamoyl)quinoxalin-2-yl)pentanoic acid] | 2.1 to 20 | – |
| O=C(O)CCCCc1nc2cc(C(=O)N[C@@H]3CCOc4ccc(F)cc43)ccc2nc1-c1ccc(F)cc1 [compound 537, (R)-5-(7((6-fluorochroman-4-yl)carbamoyl)-3-(4-fluorophenyl)quinoxalin-2-yl)pentanoic acid] | 2.1 to 20 | – |
| O=C(O)CCCCc1nc2cc(C(=O)N[C@@H]3CCOc4cc(F)c(F)cc43)ccc2nc1-c1ccc(F)cc1 [compound 538, (R)-5-(7-((6,7-difluorochroman-4-yl)carbamoyl)-3-(4-fluorophenyl)quinoxalin-2-yl)pentanoic acid] | 2.1 to 20 | – |
| C[C@@H]1CN(c2ccc(Cl)cc2)CCN1C(=O)c1ccc2nc(-c3ccc(Cl)cc3)c(CCCCC(=O)O)nc2c1 [compound 539, (R)-5-(3-(4-chlorophenyl)-7-(4-(4-chlorophenyl)-2-methylpiperazine-1-carbonyl)quinoxalin-2-yl)pentanoic acid] | 2.1 to 20 | – |
| C[C@H]1CN(c2ccc(Cl)cc2)CCN1C(=O)c1ccc2nc(-c3ccc(Cl)cc3)c(CCCCC(=O)O)nc2c1 [compound 541, (S)-5-(3-(4-chlorophenyl)-7-(4-(4-chlorophenyl)-2-methylpiperazine-1-carbonyl)quinoxalin-2-yl)pentanoic acid] | 2.1 to 20 | – |

Further lines, results first:

| Ki ([3H]PGD2 competition, Table B) [nM] | Ki ([3H]PGD2 binding, values in text) [nM] | Structure (SMILES) |
| --- | --- | --- |
| 2.1 to 20 | – | O=C(O)CCCCc1nc2cc(C(=O)N[C@H]3c4ccccc4C[C@@H]3O)ccc2nc1-c1ccc(F)cc1 [compound 511, 5-(3-(4-fluorophenyl)-7-(((1S,2S)-2-hydroxy-2,3-dihydro-1H-inden-1-yl)carbamoyl)quinoxalin-2-yl)pentanoic acid] |
| 2.1 to 20 | – | C[C@H]1CN(c2ccccc2)CCN1C(=O)c1ccc2nc(-c3ccc(Cl)cc3)c(CCCCC(=O)O)nc2c1 [compound 514, (S)-5-(3-(4-chlorophenyl)-7-(2-methyl-4-phenyl-piperazine-1-carbonyl)quinoxalin-2-yl)pentanoic acid] |
| 2.1 to 20 | – | C[C@H]1CN(c2ccc(F)cc2)CCN1C(=O)c1ccc2nc(-c3ccccc3)c(CCCCC(=O)O)nc2c1 [compound 516, (S)-5-(7-(4-(4-fluorophenyl)-2-methylpiperazine-1-carbonyl)-3-phenylquinoxalin-2-yl)pentanoic acid] |
| 2.1 to 20 | – | C[C@@H](CCCc1nc2cc(C(=O)N[C@H](C)c3ccc(Cl)cc3)ccc2nc1-c1ccc(F)cc1)C(=O)O [compound 517, (S)-5-(7-(((R)-1-(4-chlorophenyl)ethyl)carbamoyl)-3-(4-fluorophenyl)quinoxalin-2-yl)-2-methyl-pentanoic acid] |
| 2.1 to 20 | – | C[C@@H](CCCc1nc2cc(C(=O)N[C@@H]3CCOc4ccccc43)ccc2nc1-c1ccc(F)cc1)C(=O)O [compound 520, (S)-5-(7-((R)-chroman-4-ylcarbamoyl)-3-(4-fluorophenyl)quinoxalin-2-yl)-2-methylpentanoic acid] |
| 20.1 to 200 | – | C[C@@H](CCCc1nc2cc(C(=O)N[C@@H]3CCCc4ncccc43)ccc2nc1-c1ccc(F)cc1)C(=O)O [compound 521, (S)-5-(3-(4-fluorophenyl)-7-(((R)-5,6,7,8-tetrahydroquinolin-5-yl)carbamoyl)quinoxalin-2-yl)-2-methylpentanoic acid] |
| 2.1 to 20 | – | C[C@@H](CCCc1nc2cc(C(=O)N[C@@H]3CCc4cc(Cl)ccc43)ccc2nc1-c1ccc(F)cc1)C(=O)O [compound 522, (S)-5-(7-(((R)-5-chloro-2,3-dihydro-1H-inden-1-yl)carbamoyl)-3-(4-fluorophenyl)quinoxalin-2-yl)-2-methylpentanoic acid] |
| 2.1 to 20 | – | C[C@@H](CCCc1nc2cc(C(=O)N[C@@H]3CCc4cc(F)ccc43)ccc2nc1-c1ccc(F)cc1)C(=O)O [compound 523, (S)-5-(7-(((R)-5-fluoro-2,3-dihydro-1H-inden-1-yl)carbamoyl)-3-(4-fluorophenyl)quinoxalin-2-yl)-2-methylpentanoic acid] |
| 20.1 to 200 | – | Cc1nnc(CNC(=O)c2ccc3nc(-c4ccc(F)cc4)c(CCCCC(=O)O)nc3c2)o1 [compound 525, 5-(3-(4-fluorophenyl)-7-(((5-methyl-1,3,4-oxadiazol-2-yl)methyl)carbamoyl)quinoxalin-2-yl) pentanoic acid] |
| 201 to 700 | 259 | Cc1cc2nc(-c3ccccc3)c(CCCCC(=O)O)nc2cc1C(=O)N[C@@H]1CCCc2ccccc21 [compound 526, (R)-5-(6-methyl-3-phenyl-7-((1,2,3,4-tetrahydronaphthalen-1-yl)carbamoyl)quinoxalin-2-yl)pentanoic acid] |
| 20.1 to 200 | – | O=C(N[C@H](c1ccc(F)cc1)C(F)(F)F)c1ccc2nc(-c3ccc(F)cc3)c(CCCC(F)(F)C(=O)O)nc2c1 [compound 528, (R)-2,2-difluoro-5-(3-(4-fluorophenyl)-7-((2,2,2-trifluoro-1-(4-fluorophenyl)ethyl)carbamoyl)quinoxalin-2-yl)pentanoic acid] |
| 20.1 to 200 | – | CN(Cc1ccc(F)cc1)C(=O)c1ccc2nc(-c3ccc(F)cc3)c(CCCC(F)(F)C(=O)O)nc2c1 [compound 529, 2,2-difluoro-5-(7-((4-fluorobenzyl)(methyl)carbamoyl)-3-(4-fluorophenyl)quinoxalin-2-yl)pentanoic acid] |
| 2.1 to 20 | – | O=C(c1ccc2nc(-c3ccc(F)cc3)c(CCCC(F)(F)C(=O)O)nc2c1)N1CCC(c2ccccc2)CC1 [compound 531, 2,2-difluoro-5-(3-(4-fluorophenyl)-7-(4-phenylpiperidine-1-carbonyl)quinoxalin-2-yl)pentanoic acid] |
| 2.1 to 20 | – | O=C(O)CCCCc1nc2cc(C(=O)N[C@@H]3CCOc4cc(F)ccc43)ccc2nc1-c1ccc(Cl)cc1 [compound 532, (R)-5-(3-(4-chlorophenyl)-7-((7-fluorochroman-4-yl)carbamoyl)quinoxalin-2-yl)pentanoic acid] |
| 2.1 to 20 | – | C[C@H](NC(=O)c1ccc2nc(-c3ccc(F)cc3)c(CCCCC(=O)O)nc2c1)c1ccc2ccccc2c1 [compound 535, (S)-5-(3-(4-fluorophenyl)-7-((1-(naphthalen-2-yl)ethyl)carbamoyl)quinoxalin-2-yl)pentanoic acid] |
| 2.1 to 20 | – | C[C@@H]1CN(c2ccc(Cl)cc2)CCN1C(=O)c1ccc2nc(-c3ccc(F)cc3)c(CCCCC(=O)O)nc2c1 [compound 540, (R)-5-(7-(4-(4-chlorophenyl)-2-methylpiperazine-1-carbonyl)-3-(4-fluorophenyl)quinoxalin-2-yl)pentanoic acid] |
